Data taken from ChEMBL document CHEMBL3301361, “Experimental in vitro DMPK and physicochemical data on a set of publicly disclosed compounds”.

Columns and labels:
physchem = details: octan-1-ol/water
in vitro = details: human, plasma

Row | SMILES | logD (physchem; pH 7.4, LogD7.4) | fraction unbound at 5 h (in vitro; PPB) | logD (physchem; pH 7.4) | fraction unbound at 5 h (in vitro)
1 | C[C@H](Nc1nc(Nc2ncc(C#N)s2)cc(N2CCOCC2)n1)c1ncc(F)cn1 | 2.26 | 0.117 | – | –
2 | Cc1cnc(Nc2cncc(N[C@@H](C)c3ncc(F)cn3)n2)s1 | 1.91 | 0.173 | – | –
3 | NC(=O)c1cnc(N[C@H]2CCCNC2)c2cc(-c3ccc(F)cc3)sc12 | 2.01 | 0.0262 | – | –
4 | Nc1nc2nc(-c3cccs3)cc(C(F)(F)F)n2n1 | 2.01 | 0.201 | – | –
5 | N#Cc1c(N)nc2c(c1N)CC(COc1ccccc1)O2 (stereo not given) | 2.08 | 0.11 | – | –
6 | CNC(=O)c1[nH]cnc1C(=O)Nc1ccc(OC)cc1 | 2.2 | 0.134 | – | –
7 | O=C(CSc1nccn(-c2ccc(F)c(F)c2)c1=O)NC1CCCC1 | 2 | 0.28 | – | –
8 | Cc1ccc(-c2csc3ncnc(O)c23)cc1 | 2.59 | 0.0391 | – | –
9 | NC(=O)c1ccc(Oc2cccc3cccnc23)c([N+](=O)[O-])c1 | – | – | 1.7 | 0.0383
10 | NCCCCCc1c[nH]c2ccc(F)cc12 | – | – | 0.6 | 0.36
11 | C[C@H](Nc1ncc(F)c(Nc2cc(C3CC3)[nH]n2)n1)c1ncc(F)cn1 | 2.47 | 0.224 | – | –
12 | COc1cc(Nc2nc(N[C@@H](C)c3ncc(F)cn3)ncc2Cl)n[nH]1 | 2.53 | 0.121 | – | –
13 | COc1cc(Nc2nc(N[C@@H](C)c3ncc(F)cn3)ncc2Br)n[nH]1 | 2.6 | 0.124 | – | –
14 | Cc1cc(Nc2nc(N[C@@H](C)c3ncc(F)cn3)ncc2Br)n[nH]1 | 2.39 | 0.0854 | – | –
15 | C[C@H](Nc1ncc(Cl)c(Nc2cc(N(C)C)[nH]n2)n1)c1ncc(F)cn1 | 2.33 | 0.105 | – | –
16 | C[C@H](Nc1ncc(F)c(Nc2cc(N(C)C)[nH]n2)n1)c1ncc(F)cn1 | 1.98 | 0.22 | – | –
17 | Cc1cc(Nc2cc(N3CCOCC3)nc(N[C@@H](C)c3ncc(F)cn3)n2)[nH]n1 | 1.91 | 0.54 | – | –
18 | Cc1cc(Nc2nc(N[C@@H](C)c3ncc(F)cn3)nc(N3CCOCC3)c2Cl)n[nH]1 | 2.61 | 0.228 | – | –
19 | COc1cc(Nc2cc(N3CCOCC3)nc(N[C@@H](C)c3ncc(F)cn3)n2)n[nH]1 | 2.18 | 0.276 | – | –
20 | COc1cc(Nc2nc(N[C@@H](C)c3ncc(F)cn3)nc(N3CCOCC3)c2F)[nH]n1 | 2.64 | 0.253 | – | –
21 | Cc1nc(C(=O)[C@H](C)Oc2ccc(SCCCCCc3ccccc3)cc2)sc1CCCC(=O)O | 2.03 | 0.007 | – | –
22 | O=C(O)c1cn(Cc2ccccc2)c2ccccc12 | – | – | 1.19 | 0.0191

Row | SMILES | logD (physchem; pH 7.4, LogD7.4) | fraction unbound at 5 h (in vitro; PPB) | logD (physchem; pH 7.4) | fraction unbound at 5 h (in vitro)
23 | CC(C)[C@H](NC(=O)C[C@H](NC(=O)/C=C/c1ccccc1)c1ccccc1)C(=O)[C@@H]1C(=O)NC(=O)[C@H]1C | 1.91 | 0.016 | – | –
24 | O=C1COc2ccc(CNC3CCN(CCN4C(=O)COc5ccc(Br)cc54)CC3)nc2N1 | – | – | 1.42 | 0.0262
25 | CN(C)S(=O)(=O)c1ccc2c(c1)N(CCN1CCC(NCc3ccc4c(n3)NC(=O)CO4)CC1)C(=O)CO2 | – | – | 0.15 | 0.0928
26 | O=C1COc2ccc(CNC3CCN(CCN4C(=O)COc5ccc(Cl)cc54)CC3)nc2N1 | – | – | 1.33 | 0.072
27 | O=C1COc2ccc(CNC3CCN(CCN4C(=O)COc5ccc(F)cc54)CC3)nc2N1 | – | – | 0.9 | 0.17
28 | COc1ccc2c(c1)N(CCN1CCC(NCc3ccc4c(n3)NC(=O)CO4)CC1)C(=O)CO2 | – | – | 0.87 | 0.112
29 | Oc1ncc(NCc2ccccc2)c(O)n1 | – | – | 0.82 | 0.635
30 | O=C(Cc1ccc(Oc2ccccc2)cc1)NO | 2.03 | 0.02 | – | –
31 | COc1ccc2c(c1)N(CCN1CCC(NCc3cc4c(cn3)OCCO4)CC1)C(=O)CO2 | – | – | 1.24 | 0.176
32 | O=C1COc2ccccc2N1CCN1CCC(NCc2cc3c(cn2)OCCO3)CC1 | – | – | 1.04 | 0.253
33 | CN[C@@H](C)C(=O)N[C@H](C(=O)N[C@H]1CCCCN(Cc2ccccc2)C1)C1CCCCC1 | 2.12 | 0.197 | – | –
34 | CN[C@@H](C)C(=O)N[C@H](C(=O)N(C)[C@H]1CCCN(CCc2ccccc2)C1)C1CCCCC1 | 2.34 | 0.266 | – | –
35 | CN[C@@H](C)C(=O)N[C@H](C(=O)N[C@H]1CCCN(CCc2ccccc2F)C1)C1CCCCC1 | 2.51 | 0.262 | – | –
36 | CN[C@@H](C)C(=O)N[C@H](C(=O)N[C@H]1CCCN(CCc2ccc(F)cc2)C1)C1CCCCC1 | 2.39 | 0.266 | – | –
37 | NS(=O)(=O)c1ccc(CCNc2ccc3nnc(-c4ccccc4)n3n2)cc1 | 2.19 | 0.0321 | – | –
38 | CNc1c(Br)cnc2nc(-c3ccc(OCCN4CCCCC4)cc3)[nH]c12 | 2.56 | 0.112 | – | –
39 | CNc1c(C(N)=O)cnc2[nH]c(-c3ccc(OCCN4CCOCC4)cc3)nc12 | 2.14 | 0.212 | – | –
40 | CNc1c(Cl)cnc2nc(-c3ccc(OCCN4CCOCC4)cc3)[nH]c12 | 2.63 | 0.0191 | – | –
41 | COc1ccc(-c2nc3c(NCCCNC(=O)C4(CN)CC4)c(Br)cnc3[nH]2)cc1 | 1.9 | 0.0293 | – | –
42 | O=c1[nH]c([C@@H]2CCCN2)nc2c1oc1ccc(Br)cc12 | 2.19 | 0.051 | – | –
43 | O=c1[nH]c([C@@H]2CCCN2)nc2c1oc1ccc(Cl)cc12 | 2.01 | 0.072 | – | –
44 | CCOc1cccc(/C=C2\SC(=O)NC2=O)c1N1CCC[C@@H](N)C1 | 1.86 | 0.0521 | – | –

Row | SMILES | logD (physchem; pH 7.4, LogD7.4) | fraction unbound at 5 h (in vitro; PPB) | logD (physchem; pH 7.4) | fraction unbound at 5 h (in vitro)
45 | N#Cc1cnn2c(N)cc(-c3ccccc3)nc12 | 2.48 | 0.0499 | – | –
46 | COc1ccc(-c2cc(N)n3ncc(C#N)c3n2)cc1 | 2.42 | 0.0676 | – | –
47 | N#Cc1cnn2c(N)cc(-c3ccc(F)cc3)nc12 | 2.23 | 0.0544 | – | –
48 | CC(=O)Nc1ccc2ccn(-c3cc(NCCCCO)n4ncc(C#N)c4n3)c2c1 | 2.58 | 0.0409 | – | –
49 | CC(=O)Nc1ccc2ccn(-c3cc(NCCN4CCCC4)n4ncc(C#N)c4n3)c2c1 | 2.24 | 0.0556 | – | –
50 | CC(=O)Nc1ccc2ccn(-c3cc(NCCCN4CCCC4)n4ncc(C#N)c4n3)c2c1 | 1.87 | 0.0676 | – | –
51 | CS(=O)(=O)Cc1ccc2ccn(-c3cc(NC4CC4)n4ncc(C#N)c4n3)c2c1 | 2.49 | 0.0179 | – | –
52 | CC(C)Oc1cc(-n2cnc3cnc(N[C@@H](C)c4ncc(F)cn4)nc32)n[nH]1 | 2.41 | 0.309 | – | –
53 | Cc1cn([C@H]2CCCN(S(=O)(=O)c3ccc(C(N)=O)c(Oc4cccc(Cl)c4)c3)C2)c(=O)[nH]c1=O | 1.96 | 0.0358 | – | –
54 | CN1CCCC1CCNC(=O)c1ccc(Nc2ncc3cc(-c4ccncc4)ccc3n2)cc1 (stereo not given) | 2.01 | 0.0081 | – | –
55 | C[C@@H](NC1=CC(=O)CNC1)c1ccc(Nc2ncc3cc(-c4ccncc4)ccc3n2)cc1 | 2.49 | 0.0358 | – | –
56 | CC(=O)Nc1cccc(Nc2nc(NC3CC3)n3ncc(C#N)c3n2)c1 | 2.1 | 0.107 | – | –
57 | Cc1ncc(-c2nc(Nc3ccc(C(=O)N4CC[C@H](N(C)C)C4)cc3)ncc2F)n1C(C)C | 2.16 | 0.258 | – | –
58 | CCNC(=O)Nc1nc2cc(-c3cccnc3)ccc2[nH]1 | 2.34 | 0.0179 | – | –
59 | COc1cc2ncc(C(N)=O)c(Nc3ccc(F)cc3F)c2cc1N1CCN(C)CC1 | 2.18 | 0.253 | – | –
60 | COCCOc1cc2ncc(C(N)=O)c(Nc3ccc(C)cc3F)c2cc1N1CCN(C)CC1 | 2.24 | 0.151 | – | –
61 | CN1CCN(c2ccc3ncc(C(N)=O)c(Nc4ccc(F)cc4F)c3c2)CC1 | 2.3 | 0.258 | – | –
62 | CN1CCN(c2cc3c(Nc4ccc(F)cc4F)c(C(N)=O)cnc3cc2F)CC1 | 2.63 | 0.244 | – | –
63 | O=C(c1cccc(Cc2n[nH]c(=O)c3ccccc23)c1)N1CCN(c2ncccn2)CC1 | 2.13 | 0.0544 | – | –
64 | O=C(O)CNCCNc1ccc(Cl)c(C(=O)NCC23CC4CC(CC(C4)C2)C3)c1 | 1.94 | 0.072 | – | –
65 | COc1cnc(-c2ccccn2)nc1NC(C)C | 2.01 | 0.224 | – | –
